The values that follow come from ChEMBL document CHEMBL5236630, “Discovery of selective platelet-derived growth factor receptor-beta (PDGFR-β) bifunctional small-molecule degraders” (Bioorg Med Chem, 2023).

One data set has as its system HepG2. Nature of the data set: Antiproliferative activity against human HepG2 cells assessed as reduction in cell viability incubated for 48 hrs by MTT assay. The conditions noted are these: HepG2, 48 h. Format: functional, cell-based. In general terms: Tetrazolium dyes change colour on reduction, which living cells bring about.
Data set [1] can be described thus: Antiproliferative activity against human U87 cells assessed as reduction in cell viability incubated for 48 hrs by MTT assay. Format: functional, cell-based, U-87MG ATCC. The conditions noted are these: U-87 MG.
In data set [2] the target is T1, von Hippel-Lindau disease tumor suppressor/Platelet-derived growth factor receptor beta (Homo sapiens) (UniProt P09619+P40337). Kind of data set: Protac activity at VHL/PDGFRbeta in human U87 cells assessed as reduction in PDGFRbeta protein level at 0.1 to 15 uM incubated for 72 hrs by Western blot analysis. Format: cell-based. The settings on record: dose 0.1-15 µM.
T1 sequence (P09619 33-1106 limits assumed): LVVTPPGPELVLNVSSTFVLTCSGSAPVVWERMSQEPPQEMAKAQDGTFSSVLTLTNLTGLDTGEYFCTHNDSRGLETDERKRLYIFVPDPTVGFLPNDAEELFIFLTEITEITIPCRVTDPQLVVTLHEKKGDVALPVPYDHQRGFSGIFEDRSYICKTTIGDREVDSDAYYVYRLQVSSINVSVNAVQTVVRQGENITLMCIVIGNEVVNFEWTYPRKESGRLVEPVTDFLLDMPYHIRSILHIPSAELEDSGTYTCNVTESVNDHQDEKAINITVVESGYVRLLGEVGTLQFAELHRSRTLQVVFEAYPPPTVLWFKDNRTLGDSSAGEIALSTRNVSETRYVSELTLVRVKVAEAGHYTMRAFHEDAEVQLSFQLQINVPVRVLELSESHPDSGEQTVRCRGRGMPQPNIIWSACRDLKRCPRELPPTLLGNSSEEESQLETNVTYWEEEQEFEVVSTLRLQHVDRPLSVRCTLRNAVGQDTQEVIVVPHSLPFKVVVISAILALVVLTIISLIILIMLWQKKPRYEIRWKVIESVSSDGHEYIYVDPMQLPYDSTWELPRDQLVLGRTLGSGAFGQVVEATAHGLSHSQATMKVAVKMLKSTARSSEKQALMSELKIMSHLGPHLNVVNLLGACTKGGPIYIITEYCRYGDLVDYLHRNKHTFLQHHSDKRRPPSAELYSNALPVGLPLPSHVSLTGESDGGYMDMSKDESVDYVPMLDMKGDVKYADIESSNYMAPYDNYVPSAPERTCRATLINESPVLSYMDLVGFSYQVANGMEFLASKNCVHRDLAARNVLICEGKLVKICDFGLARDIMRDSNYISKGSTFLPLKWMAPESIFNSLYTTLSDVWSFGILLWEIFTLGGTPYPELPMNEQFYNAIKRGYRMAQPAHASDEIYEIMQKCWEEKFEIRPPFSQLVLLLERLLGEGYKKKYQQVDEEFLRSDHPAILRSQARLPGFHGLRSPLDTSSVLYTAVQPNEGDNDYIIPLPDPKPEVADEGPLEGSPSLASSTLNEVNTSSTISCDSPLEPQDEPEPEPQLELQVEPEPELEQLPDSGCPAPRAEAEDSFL
T1 sequence (P40337 whole entry partner): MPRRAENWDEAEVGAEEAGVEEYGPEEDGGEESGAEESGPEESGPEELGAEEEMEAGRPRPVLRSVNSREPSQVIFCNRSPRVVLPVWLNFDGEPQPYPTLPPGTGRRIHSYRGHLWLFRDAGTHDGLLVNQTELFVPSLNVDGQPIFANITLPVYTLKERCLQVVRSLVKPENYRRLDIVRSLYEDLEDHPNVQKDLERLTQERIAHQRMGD

The test system of another data set is EA.hy 926. Kind of data set: Antiproliferative activity against human EA.hy 926 cells assessed as reduction in cell viability incubated for 48 hrs by MTT assay. Format: functional, cell-based. The settings on record: EA.hy 926, 48 h.
Data set [3] in a line: Induction of apoptosis in human U87 cells assessed as early apoptotic cells at 20 uM incubated for 48 hrs by Annexin-V/PI staining based flow cytometry (Rvb= 2.74%). Format: functional, U-87MG ATCC. Background: A flow cytometer gives signals particle by particle.
The target of data set [4] is Platelet-derived growth factor receptor beta (Homo sapiens) (UniProt P09619). Nature of the data set: Protac activity at PDGFRbeta in human U87 cells assessed as reduction in PDGFRbeta protein level at 10 uM incubated for 48 hrs by Western blot analysis. Format: cell-based. (In general: Immunoblotting shows a protein as a band on a membrane.)
Chain of Platelet-derived growth factor receptor beta (Homo sapiens) (P09619 whole entry): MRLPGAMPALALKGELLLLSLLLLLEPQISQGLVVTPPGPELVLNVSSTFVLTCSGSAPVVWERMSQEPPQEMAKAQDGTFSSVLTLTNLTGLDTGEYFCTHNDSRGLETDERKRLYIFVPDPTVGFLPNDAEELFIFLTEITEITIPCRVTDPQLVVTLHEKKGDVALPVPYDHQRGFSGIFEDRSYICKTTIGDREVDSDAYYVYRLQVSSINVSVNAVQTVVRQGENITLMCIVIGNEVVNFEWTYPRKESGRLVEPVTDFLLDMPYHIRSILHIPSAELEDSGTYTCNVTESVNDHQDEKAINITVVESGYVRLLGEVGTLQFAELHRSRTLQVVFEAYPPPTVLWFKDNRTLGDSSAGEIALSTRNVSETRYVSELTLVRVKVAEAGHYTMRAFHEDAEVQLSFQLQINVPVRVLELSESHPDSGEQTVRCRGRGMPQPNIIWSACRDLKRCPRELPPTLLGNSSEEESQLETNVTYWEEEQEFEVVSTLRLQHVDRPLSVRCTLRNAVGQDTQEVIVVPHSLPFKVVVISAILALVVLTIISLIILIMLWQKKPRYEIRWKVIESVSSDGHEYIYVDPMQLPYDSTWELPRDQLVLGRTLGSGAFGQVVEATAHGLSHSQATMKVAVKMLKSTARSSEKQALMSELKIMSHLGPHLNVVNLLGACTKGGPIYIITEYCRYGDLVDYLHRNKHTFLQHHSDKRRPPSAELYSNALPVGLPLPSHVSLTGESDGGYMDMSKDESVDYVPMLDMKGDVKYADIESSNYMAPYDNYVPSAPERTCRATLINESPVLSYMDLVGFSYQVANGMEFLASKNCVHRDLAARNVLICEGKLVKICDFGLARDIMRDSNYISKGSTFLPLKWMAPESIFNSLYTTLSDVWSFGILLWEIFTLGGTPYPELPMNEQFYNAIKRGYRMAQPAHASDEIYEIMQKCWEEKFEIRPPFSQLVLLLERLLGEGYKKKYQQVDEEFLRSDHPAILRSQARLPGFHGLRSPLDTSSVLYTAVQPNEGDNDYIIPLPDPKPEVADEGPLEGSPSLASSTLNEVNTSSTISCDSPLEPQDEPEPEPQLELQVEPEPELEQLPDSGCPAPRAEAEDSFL
For data set [5], the target named is T1, von Hippel-Lindau disease tumor suppressor/Platelet-derived growth factor receptor beta (Homo sapiens). Kind of data set: Protac activity at VHL/PDGFRbeta in human U87 cells assessed as reduction in PDGFRbeta protein level at 10 uM preincubated with Carfilzomib for 2hrs followed by compound treatment and measured after 48 hrs by Western blot analysis. Format: cell-based.

Data set [6] is described as follows: Induction of apoptosis in human U87 cells assessed as viable cells at 0.1 uM incubated for 48 hrs by Annexin-V/PI staining based flow cytometry (Rvb= 93.16%). Format: functional, U-87MG ATCC. The conditions noted are these: U-87 MG, read-out: Activity.
Data set [7] can be described thus: Induction of apoptosis in human U87 cells assessed as necrotic cells at 20 uM incubated for 48 hrs by Annexin-V/PI staining based flow cytometry (Rvb= 1.13%). Format: functional, U-87MG ATCC.
Data set [8] can be described thus: Induction of apoptosis in human U87 cells assessed as viable cells at 10 uM incubated for 48 hrs by Annexin-V/PI staining based flow cytometry (Rvb= 93.16%). Format: functional, U-87MG ATCC. The conditions noted are these: U-87 MG, read-out: Activity.
For data set [9], the target named is Platelet-derived growth factor receptor beta (Homo sapiens) (UniProt P09619). Nature of the data set: Protac activity at PDGFRbeta in human U87 cells assessed as reduction in PDGFRbeta protein level at 0.1 to 10 uM incubated for 48 to 72 hrs by Western blot analysis. Format: cell-based. The conditions noted are these: dose 0.1-10 µM, time 48-72 hrs.
A short description of data set [10]: Induction of apoptosis in human U87 cells assessed as late apoptotic cells at 5 uM incubated for 48 hrs by Annexin-V/PI staining based flow cytometry (Rvb= 2.97%). Format: functional, U-87MG ATCC.
Data set [11] is described as follows: Induction of apoptosis in human U87 cells assessed as early apoptotic cells at 1 uM incubated for 48 hrs by Annexin-V/PI staining based flow cytometry (Rvb= 2.74%). Format: functional, U-87MG ATCC.
Data set [12] concerns the target T1, von Hippel-Lindau disease tumor suppressor/Platelet-derived growth factor receptor beta (Homo sapiens). Kind of data set: Protac activity at VHL/PDGFRbeta in human U87 cells assessed as reduction in PDGFRbeta protein level at 10 uM incubated for 4 to 16 hrs by Western blot analysis. Format: cell-based. The conditions noted are these: time 4-16 hrs.
For data set [13], the target named is Platelet-derived growth factor receptor beta (Homo sapiens) (UniProt P09619). Nature of the data set: Protac activity at PDGFRbeta in human U87 cells assessed as increase in VEGFR-2 protein level at 10 uM incubated for 72 hrs by Western blot analysis. Format: cell-based.
The subject of data set [14] is U-87MG ATCC. Nature of the data set: Induction of cell cycle arrest in human U87 cells assessed increase of cells in S phase at 1 to 10 uM incubated for 48 hrs by flow cytometry. Format: functional, cell-based. The settings on record: dose 1-10 µM.
Data set [15] addresses T1, von Hippel-Lindau disease tumor suppressor/Platelet-derived growth factor receptor beta (Homo sapiens). Nature of the data set: Protac activity at VHL/PDGFRbeta in human U87 cells assessed as reduction in PDGFRbeta protein level at 10 uM preincubated with MG-132 for 2hrs followed by compound treatment and measured after 48 hrs by Western blot analysis. Format: cell-based.

Data set [16] shares this target. Nature of the data set: Protac activity at VHL/PDGFRbeta in human U87 cells assessed as reduction in PDGFRbeta protein level at 10 uM preincubated with Leupeptin for 2hrs followed by compound treatment and measured after 48 hrs by Western blot analysis. Format: cell-based.
Data set [17] is described as follows: Induction of apoptosis in human U87 cells assessed as late apoptotic cells at 0.1 uM incubated for 48 hrs by Annexin-V/PI staining based flow cytometry (Rvb= 2.97%). Format: functional, U-87MG ATCC.
The target in data set [18] is Serine/threonine-protein kinase B-raf (Homo sapiens) (UniProt P15056). Kind of data set: Protac activity at BRAF in human EA.hy 926 cells assessed decrease in BRAF level at 10 uM incubated for 72 hrs by Western blot analysis. Format: cell-based.
Chain of Serine/threonine-protein kinase B-raf (Homo sapiens) (P15056 whole entry): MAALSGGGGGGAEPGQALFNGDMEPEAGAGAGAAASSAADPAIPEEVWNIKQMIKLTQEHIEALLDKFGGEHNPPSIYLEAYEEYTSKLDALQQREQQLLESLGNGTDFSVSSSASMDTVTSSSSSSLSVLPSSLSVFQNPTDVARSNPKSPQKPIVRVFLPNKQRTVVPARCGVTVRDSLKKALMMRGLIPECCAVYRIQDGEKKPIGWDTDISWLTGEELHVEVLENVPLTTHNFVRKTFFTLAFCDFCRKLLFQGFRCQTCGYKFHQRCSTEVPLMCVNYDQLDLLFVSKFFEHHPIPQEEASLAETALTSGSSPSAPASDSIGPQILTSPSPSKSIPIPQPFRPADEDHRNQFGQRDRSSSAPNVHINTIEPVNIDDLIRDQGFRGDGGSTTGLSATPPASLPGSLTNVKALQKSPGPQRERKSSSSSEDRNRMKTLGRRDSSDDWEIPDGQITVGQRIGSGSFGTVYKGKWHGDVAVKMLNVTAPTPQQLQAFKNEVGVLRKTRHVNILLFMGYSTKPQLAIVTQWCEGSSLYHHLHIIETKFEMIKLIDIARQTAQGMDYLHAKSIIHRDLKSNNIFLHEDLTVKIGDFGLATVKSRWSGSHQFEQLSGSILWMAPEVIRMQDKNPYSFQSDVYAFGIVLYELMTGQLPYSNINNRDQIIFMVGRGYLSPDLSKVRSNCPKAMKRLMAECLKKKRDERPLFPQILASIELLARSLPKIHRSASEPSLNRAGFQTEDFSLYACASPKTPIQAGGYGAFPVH
Data set [19] can be described thus: Induction of apoptosis in human U87 cells assessed as early apoptotic cells at 10 uM incubated for 48 hrs by Annexin-V/PI staining based flow cytometry (Rvb= 2.74%). Format: functional, U-87MG ATCC.
Data set [20] is described as follows: Induction of apoptosis in human U87 cells assessed as necrotic cells at 5 uM incubated for 48 hrs by Annexin-V/PI staining based flow cytometry (Rvb= 1.13%). Format: functional, U-87MG ATCC.
Data set [21] in a line: Induction of apoptosis in human U87 cells assessed as early apoptotic cells at 5 uM incubated for 48 hrs by Annexin-V/PI staining based flow cytometry (Rvb= 2.74%). Format: functional, U-87MG ATCC.
The nature of data set [22]: Induction of apoptosis in human U87 cells assessed as early apoptotic cells at 0.1 uM incubated for 48 hrs by Annexin-V/PI staining based flow cytometry (Rvb= 2.74%). Format: functional, U-87MG ATCC.
Data set [23] in a line: Induction of apoptosis in human U87 cells assessed as late apoptotic cells at 1 uM incubated for 48 hrs by Annexin-V/PI staining based flow cytometry (Rvb= 2.97%). Format: functional, U-87MG ATCC.
Data set [24] can be described thus: Induction of apoptosis in human U87 cells assessed as viable cells at 5 uM incubated for 48 hrs by Annexin-V/PI staining based flow cytometry (Rvb= 93.16%). Format: functional, U-87MG ATCC. The conditions noted are these: U-87 MG, read-out: Activity.
Another data set relates to HEK293. Kind of data set: Cytotoxicity against human HEK293 cells assessed as reduction in cell viability at 50 uM incubated for 48 hrs by MTT assay. Format: toxicity, cell-based. The conditions noted are these: hek293, 48 h.
Data set [25] in a line: Induction of apoptosis in human U87 cells assessed as necrotic cells at 10 uM incubated for 48 hrs by Annexin-V/PI staining based flow cytometry (Rvb= 1.13%). Format: functional, U-87MG ATCC.
The nature of data set [26]: Induction of apoptosis in human U87 cells assessed as necrotic cells at 1 uM incubated for 48 hrs by Annexin-V/PI staining based flow cytometry (Rvb= 1.13%). Format: functional, U-87MG ATCC.
Data set [27] has as its target Platelet-derived growth factor receptor beta (Homo sapiens) (UniProt P09619). Kind of data set: Protac activity at PDGFRbeta in human U87 cells assessed as reduction in PDGFRbeta protein level at 10 uM incubated for 72 hrs by Western blot analysis. More on the design: scale not given: the % may be the effect or the level left. Format: cell-based.
Data set [28] in a line: Induction of apoptosis in human U87 cells assessed as late apoptotic cells at 20 uM incubated for 48 hrs by Annexin-V/PI staining based flow cytometry (Rvb= 2.97%). Format: functional, U-87MG ATCC.
The subject of data set [29] is U-87MG ATCC. Nature of the data set: Induction of cell cycle arrest in human U87 cells assessed decrease of cells in G2 phase at 1 to 10 uM incubated for 48 hrs by flow cytometry. Format: functional, cell-based. The settings on record: dose 1-10 µM.
In data set [30] the target is T1, von Hippel-Lindau disease tumor suppressor/Platelet-derived growth factor receptor beta (Homo sapiens). Kind of data set: Protac activity at VHL/PDGFRbeta in human U87 cells assessed as reduction in PDGFRbeta protein level at 10 uM preincubated with VH032 for 2hrs followed by compound treatment and measured after 48 hrs by Western blot analysis. Format: cell-based.

Data set [31] in a line: Induction of apoptosis in human U87 cells assessed as necrotic cells at 0.1 uM incubated for 48 hrs by Annexin-V/PI staining based flow cytometry (Rvb= 1.13%). Format: functional, U-87MG ATCC.
Data set [32] can be described thus: Induction of apoptosis in human U87 cells assessed as viable cells at 20 uM incubated for 48 hrs by Annexin-V/PI staining based flow cytometry (Rvb= 93.16%). Format: functional, U-87MG ATCC. The settings on record: U-87 MG, read-out: Activity.
Data set [33] in a line: Induction of apoptosis in human U87 cells assessed as viable cells at 1 uM incubated for 48 hrs by Annexin-V/PI staining based flow cytometry (Rvb= 93.16%). Format: functional, U-87MG ATCC. The settings on record: U-87 MG, read-out: Activity.
For data set [34], the target named is T1, von Hippel-Lindau disease tumor suppressor/Platelet-derived growth factor receptor beta (Homo sapiens). Nature of the data set: Protac activity at VHL/PDGFRbeta in human U87 cells assessed as reduction in PDGFRbeta protein level at 10 uM preincubated with sorafenib for 2hrs followed by compound treatment and measured after 48 hrs by Western blot analysis. Format: cell-based.

Data set [35] in a line: Induction of apoptosis in human U87 cells assessed as late apoptotic cells at 10 uM incubated for 48 hrs by Annexin-V/PI staining based flow cytometry (Rvb= 2.97%). Format: functional, U-87MG ATCC.

pIC50: −log10 of the molar value. Active and inactive are the calls of the source. The rule behind the calls is not given here. Some results are limits rather than exact numbers.

Broadly, the pIC50 is the negative decadic logarithm of the IC50, by convention in mol/L. As to `Cc1ncsc1-c1ccc(CNC(=O)[C@@H]2C[C@H](O)CN2C(=O)[C@@H](NC(=O)CCCNC(=O)c2cc(Oc3ccc(NC(=O)Nc4ccc(Cl)c(C(F)(F)F)c4)cc3)ccn2)C(C)(C)C)cc1`, the pIC50 is under 4.30 in the data set with HepG2, 4.69 in data set [1] and under 4.30 in the data set on EA.hy 926. In [2], the result was inactive.
`Cc1ncsc1-c1ccc(CNC(=O)[C@@H]2C[C@@H](O)CN2C(=O)[C@@H](NC(=O)CCCNC(=O)c2cc(Oc3ccc(NC(=O)Nc4ccc(Cl)c(C(F)(F)F)c4)cc3)ccn2)C(C)(C)C)cc1`: the Activity in [3] was 3.25%; in data set [7], 1.63%; in data set [9], “Dose-Dependent Effect”; in data set [10], 1.59%; in data set [11], 1.66%; in data set [12], “Dose-Dependent Effect”. Further, the Activity in [17] was determined as 1.82%; in data set [19] it was 2.49%; in data set [20], 0.63%; in [21], 1.66%; in [22] it was 2.02%; in data set [23], 1.71%. Moreover, the Activity result was “Non-Toxic” with HEK293; 0.85% in data set [25]; 0.49% in data set [26]; over 70% in data set [27]; 4.56% in data set [28]; 0.89% in data set [31]. Moreover, the Activity in data set [35] is recorded as 2.03%. The outcome (in [4]; in data set [5]; in [13]; with U-87MG ATCC [14]; in data set [18]; in data set [2]) was Active. For the same compound, the outcome (in the data set with U-87MG ATCC [29]; in data set [30]; in data set [34]) was Active. Moreover, in data set [6], the viability at 0.1 µM was found to be 95.3%. In addition, the viability at 10 µM in [8] was 94.6%. In addition, the outcome in [15] and in [16] was inactive. The pIC50 in [1] was 4.91. For the same compound, the viability at 5 µM in data set [24] turned out to be 96.1%. Also, the viability at 20 µM in [32] is 90.6%. For the same compound, in [33], the viability at 1 µM is 96.2%.
As to `CNC(=O)c1cc(Oc2ccc(NC(=O)Nc3ccc(Cl)c(C(F)(F)F)c3)cc2)ccn1` [SORAFENIB], the negative-log IC50 (pIC50) with HepG2 is 5.57; in [1] it was 4.90; in the data set with EA.hy 926, 4.96. In addition, the Activity entry in the data set on HEK293 was “Non-Toxic”.
Regarding `O=C1CCC(N2Cc3c(NC(=O)CCCNC(=O)c4cc(Oc5ccc(NC(=O)Nc6ccc(Cl)c(C(F)(F)F)c6)cc5)ccn4)cccc3C2=O)C(=O)N1` (stereo unspecified), the result in data set [4] and in [13] was Active. For the same compound, the figures for the Activity result (in data set [9]; in the data set with HEK293; in data set [27]) were “Dose-Dependent Effect”, “Non-Toxic” and over 70%, respectively. Moreover, the pIC50 in the data set on HepG2 is 7.41; with EA.hy 926, 4.87.
On to `O=C(CNc1cccc2c1C(=O)N(C1CCC(=O)NC1=O)C2=O)NCCCCNC(=O)c1cc(Oc2ccc(NC(=O)Nc3ccc(Cl)c(C(F)(F)F)c3)cc2)ccn1` (stereo unspecified), for which the outcome in data set [4] and in data set [13] was Active. For the same compound, the Activity entry in [9] was “Dose-Dependent Effect”; in the data set with HEK293, “Non-Toxic”; in [27], over 70%.
